Assay results as given in patent publication US6809091B1, “Substances capable of inducing apoptosis” (Takara Bio Inc., priority 1998, dated 2004).

Tests used:
[1] = test system: human promyelocytic leukemia HL-60; assay: MTT method: cell growth suppressing / apoptosis-inducing activity; type: cell-based; conditions: for apoptosis-inducing activity of the non-heated solution: HL-60, 48 hours, MTT method; for apoptosis-inducing activity / cancer cell growth suppressing activity: HL-60, MTT method of Example 1, 48 hours
Description: Heated and non-heated substances of each of them were sterilized by a membrane filter of 0.22 μm to prepare samples for the apoptosis-inducing activity. Those samples were diluted with aseptic distilled water to an extent of 2-, 4-, 8-, 16- and 32-fold, their activity for suppressing the cell growth to the human promyelocytic leukemia HL-60 was measured as follows and their intensity or the apoptosis-inducing activity was compared.
Thus, 10 μl of each of the diluted solutions or 10 μl of aseptic distilled water were placed in a well of a 96-well microtiter plate. Then 90 μl of an RPMI 1640 medium (manufactured by Nissui) containing 10% of fetal bovine serum (manufactured by Gibco) which contained 5000 HL-60 cells (ATCC CCL240) were added thereto and an incubation was carried out at 37° C. for 48 hours in the presence of 5% carbon dioxide gas. After observing the shape of the cells under an optical microscope, 10 μl of a phosphate-buffered aqueous saline solution containing 5 mg/ml of 3-(4,5-dimethylthiazol-2-yl)-2,5-diphenyltetrazolium bromide (MTT; manufactured by Sigma), an incubation was continued for four hours more and state of growth of cells and formation of formazan produced in the cells were observed under a microscope. Further, 100 μl of 2-propanol containing 0.04N HCl were added thereto followed by well stirring and the absorbance at 590 nm was measured and used as a degree of growth of cells (an MTT method).
The solvent of the fraction was appropriately evaporated to substitute with a 50% aqueous solution of ethanol and the activity for suppressing the growth of cancer cells was measured by an MTT method mentioned in Example 1 except that the sample was diluted to a two-fold series using a 50% aqueous solution of ethanol and 2 μl of each of the diluted solutions or 2 μl of a 50% aqueous solution of ethanol were placed in a well of a flat-bottom 96-well microplate. Time for incubation was 16 hours.

HL-60 cells [2] = assay: Trypan Blue staining, survival rate; type: cell-based; conditions: Homo sapiens, HL-60, 24 hours, concentration where survival rate becomes 50%, read-out: Survival Rate50
Description: (3) The cells which were incubated for 24 hours by the same manner as in Example 9-(2) were stained with 0.4% Trypan Blue and observed under an optical microscope, numbers of viable cells which were not stained and of dead cells which were stained in blue were measured, concentration (survival rate50) of each of the samples where survival rate becomes 50% was determined and the result is given in Table 1.

HL-60 cells [3] = assay: observation of apoptosis under an optical microscope; type: cell-based, human; conditions: HL-60, 24 hours
Description: (1) HL-60 cells (ATCC CCL-240) incubated at 37° C. in an RPMI 1640 medium (manufactured by BioWhittaker) containing 10% of fetal bovine serum (manufactured by JRH) treated at 56° C. for 30 minutes were suspended in an RPMI 1640 medium to make the concentration 2.5×10^5 cells/5 ml.
To 5 ml of this suspension were added 10 μl of 12.5 mM, 25 mM, 50 mM or 100 mM of a 70% ethanolic solution of 4,5-dihydroxy-2-pentenal prepared in Example 6-(1), 0.05 mM, 0.5 mM, 5 mM or 50 mM of a 70% ethanolic solution of 4-hydroxy-2-cyclopenten-1-[…] prepared in Example 6-(1), 5 mM, 10 mM or 20 mM of a 70% ethanolic solution of 4-(9-adeninyl)-2-cyclopenten-1-one prepared in Example 4-(4), 2.5 mM, 5 mM, 15 mM or 25 mM of a 70% ethanolic solution of 4-(9-guaninyl)-2-cyclopenten-1-one prepared in Example 4-(5), 75 mM, 150 mM or 300 mM of a 70% ethanolic solution of 1,5-epoxy-1-hydroxy-3-penten-2-one prepared in Example 5-(2) or 5 mM, 25 mM or 50 mM of a 70% ethanolic solution of 2-(trans-3,4-dihydroxy-1-butenyl)-4-(trans-2-formylvinyl)-1,3-dioxolane prepared in Example 6-(2) followed by incubating at 37° C. in the presence of 5% carbon dioxide gas for 24 hours.
Incidentally, such phenomena were not noted in the incubated cells to which […] of 70% ethanolic solution were added used as a control.

HL-60 cells [4] = assay: measurement of apoptosis cells using FACScan; type: cell-based, human; conditions: HL-60, 24 hours and 48 hours
Description: (2) HL-60 cells which were incubated on an RPMI 1640 medium containing 10% of fetal bovine serum processed at 56° C. for 30 minutes were suspended in an RPMI 1640 medium to make 2.5×10^5 cells/5 ml. […]

HL-60 cells [5] = assay: analysis of fragmentation of DNA; type: cell-based, human
Description: (2) HL-60 cells which were incubated on an RPMI 1640 medium containing 10% of fetal bovine serum processed at 56° C. for 30 minutes were suspended in an RPMI 1640 medium to make 2.5×10^5 cells/5 ml.
To 5 ml the suspension were added 10 μl of 12.5 mM, 25 mM, 50 mM or 100 mM of a 70% ethanolic solution of 4,5-dihydroxy-2-pentenal, 0.05 mM, 0.5 mM, 5 mM or 50 mM of a 70% ethanolic solution of 4-hydroxy-2-cyclopenten-1-one, 5 mM, 10 mM or 20 mM of a 70% ethanolic solution of 4-(9-adeninyl)-2-cyclopenten-1-one prepared in Example 4-(4), 2.5 mM, 5 mM, 15 mM or 25 mM of a 70% ethanolic solution of 4-(9-guaninyl)-2-cyclopenten-1-one prepared in Example 4-(5) 75 mM, 150 mM or 300 mM of a 70% ethanolic solution of 1,5-epoxy-1-hydroxy-3-penten-2-one prepared in Example 5-(2) or 5 mM, 25 mM or 50 mM of a 70% ethanolic solution of 2-(trans-3,4-dihydroxy-1-butenyl)-4-(trans-2-formylvinyl)-1,3-dioxolane prepared in Example 6-(2) followed by incubating at 37° C. in the presence of 5% of carbon dioxide gas for 24 hours and 48 hours and the resulting cells were subjected to a measurement of apoptosis cells using FACScan by a method mentioned in pages 129-130 of “Experimental Protocol Series—Apoptosis Experiment Protocol” which was an extra issue of “Saibo Kogaku (Cell Technology)” (published by Shujunsha in 1994) and also to a measurement of analysis of fragmentation of DNA by a method mentioned in page 61-63 of “Biomanual UP Series—New Experimental Methods for Apoptosis” (published by Yodosha in 1995).

O=CC[C@H](O)[C@H](O)CO [2-deoxy-D-ribose]
apoptosis-inducing activity of the non-heated solution [1]: no apoptosis-inducing activity

O=C1C=CC(O)C1O (centres unmarked) [4,5-dihydroxy-2-cyclopenten-1-one]
cancer cell growth suppressing activity and apoptic body formation ([1]; HL-60, MTT method of Example 4-(2), sample in 50% ethanol, 16 hours): confirmed

NC(CCC(=O)NC(CSC1CC(=O)CC1O)C(=O)NCC(=O)O)C(=O)O (single isomer, unassigned) [peak 1]
apoptosis-inducing activity / cancer cell growth suppressing activity [1]: noted

O=C[C@H](O)[C@H](O)[C@H](O)CO [non-heated aqueous solution of D-ribose, D-ribose]
apoptosis-inducing activity of the non-heated solution [1]: no apoptosis-inducing activity

O=C[C@H](O)[C@@H](O)[C@H](O)CO [D(+)-xylose]
apoptosis-inducing activity of the non-heated solution [1]: no apoptosis-inducing activity

O=C1C=CCOC1O (centres unmarked) [1,5-epoxy-1-hydroxy-3-penten-2-one]
IC50 (HL-60 cells [2]): 438 µM
final concentration at which aggregation of nuclei, reduction in size of the cells and formation of apoptic body were confirmed (HL-60 cells [3]): ≥ 625 µM
final concentration at which apoptosis cells were confirmed (HL-60 cells [4]): ≥ 600 µM

O=C[C@H](O)[C@@H](O)[C@@H](O)CO [L(+)-arabinose]
apoptosis-inducing activity of the non-heated solution [1]: no apoptosis-inducing activity

Nc1ncnc2c1ncn2C1C=CC(=O)C1 (centres unmarked) [4-(9-adeninyl)-2-cyclopenten-1-one]
fragmentation of DNA (HL-60 cells [5]; HL-60, 10 μM final concentration): confirmed
fragmentation of DNA (HL-60 cells [5]; HL-60, 30 μM final concentration): confirmed
IC50 (HL-60 cells [2]): 22.4 µM

NC(CCC(=O)NC(CSC1CC(=O)CC1O)C(=O)NCC(=O)O)C(=O)O (single isomer, unassigned) [peak 3]
apoptosis-inducing activity / cancer cell growth suppressing activity [1]: noted

O=C[C@@H](O)[C@H](O)[C@H](O)CO [D-(−)-arabinose]
apoptosis-inducing activity of the non-heated solution [1]: no apoptosis-inducing activity
